Measured values published in the supplement of paper PMC4862054.

Key:
Experiment in all cases: normalised viability (% of control), CellTiter-Blue; higher = more viable cells (about 100 = DMSO control)
Details in all cases: incubation time: 72 h
[1] = system: CAL-148
Experimental: (§1)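 DSRT, CellTiter-Blue viability, 72 h incubation. Signal is normalised to DMSO and benzethonium chloride controls. Value is the normalised response at dose 8.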

[2] = system: CAL-85-1
Experimental: as §1

[3] = system: HDQ-P1
Experimental: as §1

[4] = system: DU-4475
Experimental: as §1

[5] = system: CAL-51
Experimental: as §1

[6] = system: MDA-MB-453
Experimental: as §1

[7] = system: CAL-148; remark: listed apart in the source
Experimental: (§2)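 DSRT, CellTiter-Blue viability, 72 h incubation. Signal is normalised to DMSO and benzethonium chloride controls. Value is the normalised response at dose 6.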

[8] = system: CAL-85-1; remark: listed apart in the source
Experimental: as §2

[9] = system: HDQ-P1; remark: listed apart in the source
Experimental: as §2

[10] = system: DU-4475; remark: listed apart in the source
Experimental: as §2

[11] = system: CAL-51; remark: listed apart in the source
Experimental: as §2

[12] = system: MDA-MB-453; remark: listed apart in the source
Experimental: as §2

Structure (SMILES)	normalised viability [1] [%]	normalised viability [2] [%]	normalised viability [3] [%]	normalised viability [4] [%]	normalised viability [5] [%]	normalised viability [6] [%]	normalised viability [7] [%]	normalised viability [8] [%]	normalised viability [9] [%]	normalised viability [10] [%]	normalised viability [11] [%]	normalised viability [12] [%]
Cc1c(N)nc([C@H](CC(N)=O)NC[C@H](N)C(N)=O)nc1C(=O)N[C@H](C(=O)N[C@H](C)[C@@H](O)[C@H](C)C(=O)N[C@H](C(=O)NCCc1nc(-c2nc(C(=O)NCCC[S+](C)C)cs2)cs1)[C@@H](C)O)[C@@H](OC1OC(CO)C(O)C(O)C1OC1OC(CO)C(O)C(OC(N)=O)C1O)c1cnc[nH]1 (some centres undefined) [Bleomycin] (3000 nM)	88.2	92.7	76.5	107	96.5	101						
Cc1cc2c(F)c(Oc3ncnn4cc(OC[C@@H](C)O)c(C)c34)ccc2[nH]1 [Brivanib] (30 nM)							92.6	91.7	65.1	109	91.9	85.4
Cc1cc2c(F)c(Oc3ncnn4cc(OC[C@@H](C)O)c(C)c34)ccc2[nH]1 [Brivanib] (300 nM)	98.5	89.8	113	98.9	93.6	99.1						
CC(C)C[C@H](NC(=O)[C@H](CCc1ccccc1)NC(=O)CN1CCOCC1)C(=O)N[C@@H](Cc1ccccc1)C(=O)N[C@@H](CC(C)C)C(=O)[C@@]1(C)CO1 [Carfilzomib] (30 nM)							40.8	9.23	1.01	8.97	32.1	19.8
CC(C)C[C@H](NC(=O)[C@H](CCc1ccccc1)NC(=O)CN1CCOCC1)C(=O)N[C@@H](Cc1ccccc1)C(=O)N[C@@H](CC(C)C)C(=O)[C@@]1(C)CO1 [Carfilzomib] (300 nM)	1.83	2.07	0.3	1.31	2.56	18.1						
Nc1nc(Cl)nc2c1ncn2[C@@H]1O[C@H](CO)[C@@H](O)[C@@H]1F [Clofarabine] (300 nM)							68.7	65.1	70.1	77	81.9	82.9
Nc1nc(Cl)nc2c1ncn2[C@@H]1O[C@H](CO)[C@@H](O)[C@@H]1F [Clofarabine] (3000 nM)	32.9	54.5	95.6	19.6	15.4	44.4						
CCN(CC)CCOc1ccc(C(=C(Cl)c2ccccc2)c2ccccc2)cc1 [Clomifene] (300 nM)							99.2	102	105	90.6	91.6	93.9
CCN(CC)CCOc1ccc(C(=C(Cl)c2ccccc2)c2ccccc2)cc1 [Clomifene] (3000 nM)	93.3	106	132	92.4	95.4	82.8						
